# Measurements taken from ChEMBL document CHEMBL1201862, “PubChem BioAssay data set” (2004).
# The source made the active and inactive calls.
# Legend:
# [1] = target: Peroxisome proliferator-activated receptor gamma/Nuclear receptor coactivator 1 (Homo sapiens, UniProt P37231); assay: (§1) TR-FRET dose response biochemical High Throughput Screening assay for agonists of the steroid receptor coactivator 1 (SRC-1) recruitment by the peroxisome proliferator-activated receptor gamma (PPAR gamma): non-selective agonists. [Related pubchem assays (depositor defined):AID1300, AID1808, AID504735, AID631]; type: protein assay
# [2] = target: Peroxisome proliferator-activated receptor gamma/Nuclear receptor coactivator 3 (Homo sapiens, UniProt P37231); assay: as §1, with “3 (SRC-3)” for “1 (SRC-1)”, “assays: 1301 (Confirmation screen.), 1048 (Primary screen.)]” for “assays (depositor defined):AID1300, AID1808, AID504735, AID631]”; type: functional
# [3] = target: Peroxisome proliferator-activated receptor gamma/Nuclear receptor coactivator 2 (Homo sapiens, UniProt P37231); assay: TR-FRET dose response biochemical High Throughput Screening assay for agonists of the steroid receptor coactivator 2 (SRC-2) recruitment by the peroxisome proliferator-activated receptor gamma (PPAR gamma): non-selective agonists. [Related pubchem assays: 1297, 1032 ]; type: functional
# Escherichia coli = assay: microbe, parasite or virus in culture
# [4] = target: Dual specificity tyrosine-phosphorylation-regulated kinase 1A (Rattus norvegicus, UniProt Q63470); type: biochemical, Homo sapiens
# HEK293 [5] = assay: EBV LMP1 TES2 canonical NF-kB signalling blockers – cell-based, HEK293, luciferase, cherry-pick, dose response (AID 588343); type: functional; details: Homo sapiens
# [6] = target: Nuclear receptor subfamily 0 group B member 1 (Homo sapiens, UniProt P51843); assay: Luminescence-based cell-based high throughput dose response assay for inhibitors of the orphan nuclear receptor subfamily 0, group B, member 1 (DAX1; NR0B1). [Related pubchem assays (depositor defined):AID504766, AID504790]; type: functional
# HEK293 [7] = assay: cells; type: functional, cell-based; details: Homo sapiens
# [8] = Trypanosoma cruzi growth suppression in host cells – NIH3T3 host cells, beta-gal luminescence, confirmation (AID 2044); type: functional, cell-based;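 note: intracellular parasites grown in NIH/3T3 mouse fibroblasts as host cells; luminescent beta-galactosidase reporter signal from transgenic T. cruzi replicating inside host cells; inhibitors lower the luminescence signal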
# Streptococcus = assay: GAS UMAA2166 growth inhibition – luminescence, BacTiterGlo, counter-screen for streptokinase expression inhibitor project, dose response (AID 1915); type: functional, organism-based;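 note: potency for reduction of bacterial viability or growth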
# [9] = target: T1, Kappa-type opioid receptor (Homo sapiens, UniProt P41145); type: functional
# [10] = NIH3T3 cell viability loss – ATP luminescence, mouse fibroblasts, counter-screen, dose response (AID 2010); type: functional, cell-based;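 note: cells exposed to compound for about 90 hours before reading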
# [11] = NIH-3T3 fibroblast cytotoxicity, dose response, cytotoxicity control, cell-based, fluorescence, Alamar Blue, secondary assay (AID 2327); type: functional;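 note: NIH-3T3 mouse fibroblasts cultured with fluconazole at 8 µg/mL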
# [12] = fluconazole-exposed Candida albicans growth modulators – fluorescence, retest, confirmation (AID 2467); type: functional, cell-based
# [13] = tested on: Streptococcus sp. 'group A'; assay: Streptococcus pyogenes SK(-)GAS viability under kanamycin – luminescence, BacTiterGlo, confirmation, counter-screen for streptokinase expression inhibitor project, dose response (AID 1900); type: functional, organism-based
# [14] = target: T2, Serine/threonine-protein phosphatase (Candida dubliniensis (strain CD36 / CBS 7987 / NCPF 3949 / NRRLY-17841) (Yeast), UniProt B9W6M3); assay: blockers of CaCl2-induced CDRE-lacZ signaling – S. cerevisiae, luminescence, secondary, dose response (AID 2388); type: functional, cell-based;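 note: yeast reporter cells carrying a calcineurin-responsive lacZ construct stimulated with calcium chloride; luminescent beta-galactosidase reporter signal in whole cells rather than isolated phosphatase activity; potency for inhibition where a drop in reporter signal means calcineurin blockade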
# T2 sequence (B9W6M3 whole entry): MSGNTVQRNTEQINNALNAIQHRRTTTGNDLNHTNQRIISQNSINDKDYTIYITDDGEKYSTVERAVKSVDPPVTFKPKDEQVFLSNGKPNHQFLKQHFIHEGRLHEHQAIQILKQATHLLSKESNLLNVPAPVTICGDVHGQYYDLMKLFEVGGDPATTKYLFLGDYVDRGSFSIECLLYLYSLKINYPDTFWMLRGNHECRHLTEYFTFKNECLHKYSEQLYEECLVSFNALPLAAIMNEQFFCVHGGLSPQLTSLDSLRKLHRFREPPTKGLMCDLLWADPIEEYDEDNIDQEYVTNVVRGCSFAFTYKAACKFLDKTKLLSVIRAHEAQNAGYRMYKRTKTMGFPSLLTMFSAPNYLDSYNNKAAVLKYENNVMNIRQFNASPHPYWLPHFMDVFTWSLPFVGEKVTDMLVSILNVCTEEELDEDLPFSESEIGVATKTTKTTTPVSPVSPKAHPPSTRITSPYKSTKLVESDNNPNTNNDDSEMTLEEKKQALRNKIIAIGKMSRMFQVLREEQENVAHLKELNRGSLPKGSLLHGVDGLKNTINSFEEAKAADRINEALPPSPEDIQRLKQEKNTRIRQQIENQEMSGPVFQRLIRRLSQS
# [15] = target: T1, Kappa-type opioid receptor; type: functional; remark: listed apart in the source
# [16] = target: ATP-dependent molecular chaperone HSP82 (Candida albicans (strain WO-1) (Yeast), UniProt C4YTQ8); assay: steroid-induced GRE reporter decrease in yeast – S. cerevisiae, luminescence, Hsp90 inhibitor project, dose response (AID 2400); type: functional, cell-based;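 note: beta-galactosidase luminescence from glucocorticoid response element reporter as proxy for Hsp90 function; inhibitor potency where signal loss means Hsp90 inhibition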
# INS1 = assay: INS-1E survival protection against cytokine death – cell-based, luminescence, retest, dose response (AID 449756); type: functional; details: Rattus norvegicus;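 note: cell death triggered by IL-1 beta plus TNF-alpha plus IFN-gamma mixture; protective hits raise ATP signal compared with cytokine alone wells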
# Beta-galactosidase = Beta-galactosidase (Escherichia coli, UniProt Q8VNN2); type: functional
# Exodeoxyribonuclease V = Exodeoxyribonuclease V (Escherichia coli (strain K12), UniProt P04993+P07648+P08394); assay: RecBCD inhibition via phage-restricted bacterial growth – absorbance, V66 E. coli, mutant T4 phage, counter-screen for AddAB inhibitor project, dose response (AID 492957); type: functional, cell-based, Escherichia coli str. K-12 substr. MG1655
# [17] = Counterscreen for AddAB inhibitors: absorbance-based bacterial cell-based high throughput dose response assay for inhibitors of bacterial viability. [Related pubchem assays (depositor defined):AID435030, AID449728, AID449731, AID488942, AID488955, AID488956]; type: functional
# [18] = MIN6 cell viability loss – mouse insulinoma, cytotoxicity control, dose response (AID 2122); type: functional;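 note: confirmatory high-throughput counterscreen run to flag cytotoxic compounds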
# [19] = Luminescence Cell-Based Dose Retest to Confirm Inhibitors of Cancer Stem Cells. [Related pubchem assays (depositor defined):AID2717, AID2721]; type: functional; details: Homo sapiens
# BJ [20] = assay: cells; type: functional, cell-based; details: Homo sapiens
# [21] = decrease of insulin promoter-GFP reporter – imaging, high-content screening, mouse beta cells (AID 1628); type: functional; details: MIN6
# BJ [22] = assay: BJ-TERT-LT-ST fibroblast viability loss – cell-based, RAS-independent, luminescence, dose response (AID 1935); type: functional; details: Homo sapiens;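 note: BJ fibroblasts immortalized with TERT plus LT and ST oncogenes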
# [23] = DRD fibroblast viability loss – cell-based, non-viral oncogenic, luminescence, dose response (AID 1934); type: functional; details: Homo sapiens
# BJ [24] = assay: BJ-TERT fibroblast viability loss – cell-based, RAS-independent, luminescence, dose response (AID 1933); type: functional; details: Homo sapiens
# T1 sequence (P41145 whole entry): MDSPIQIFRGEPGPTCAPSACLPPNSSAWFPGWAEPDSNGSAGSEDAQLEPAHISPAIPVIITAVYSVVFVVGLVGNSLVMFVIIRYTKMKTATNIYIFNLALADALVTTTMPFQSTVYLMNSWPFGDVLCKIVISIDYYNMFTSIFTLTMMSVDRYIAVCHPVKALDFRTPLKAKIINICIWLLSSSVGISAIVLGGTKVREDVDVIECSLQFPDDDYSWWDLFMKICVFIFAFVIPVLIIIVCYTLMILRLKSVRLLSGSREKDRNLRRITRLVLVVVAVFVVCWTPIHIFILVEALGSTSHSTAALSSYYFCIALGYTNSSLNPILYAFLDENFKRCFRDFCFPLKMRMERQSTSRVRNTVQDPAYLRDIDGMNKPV
# Nuclear receptor subfamily 0 group B member 1, sequence (P51843 whole entry): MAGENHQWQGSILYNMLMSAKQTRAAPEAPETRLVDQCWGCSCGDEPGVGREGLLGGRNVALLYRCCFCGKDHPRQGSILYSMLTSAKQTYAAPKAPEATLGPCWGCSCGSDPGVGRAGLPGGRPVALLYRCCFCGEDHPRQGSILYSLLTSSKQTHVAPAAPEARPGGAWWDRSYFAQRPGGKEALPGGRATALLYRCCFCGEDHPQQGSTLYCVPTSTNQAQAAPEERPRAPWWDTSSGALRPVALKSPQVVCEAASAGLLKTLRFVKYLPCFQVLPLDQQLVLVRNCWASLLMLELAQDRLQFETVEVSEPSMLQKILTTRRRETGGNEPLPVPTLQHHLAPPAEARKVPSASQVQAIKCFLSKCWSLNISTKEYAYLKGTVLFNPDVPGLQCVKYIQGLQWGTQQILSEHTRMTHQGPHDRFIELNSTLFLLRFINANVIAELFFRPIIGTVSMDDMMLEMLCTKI
# Peroxisome proliferator-activated receptor gamma/Nuclear receptor coactivator 3, sequence (P37231 whole entry): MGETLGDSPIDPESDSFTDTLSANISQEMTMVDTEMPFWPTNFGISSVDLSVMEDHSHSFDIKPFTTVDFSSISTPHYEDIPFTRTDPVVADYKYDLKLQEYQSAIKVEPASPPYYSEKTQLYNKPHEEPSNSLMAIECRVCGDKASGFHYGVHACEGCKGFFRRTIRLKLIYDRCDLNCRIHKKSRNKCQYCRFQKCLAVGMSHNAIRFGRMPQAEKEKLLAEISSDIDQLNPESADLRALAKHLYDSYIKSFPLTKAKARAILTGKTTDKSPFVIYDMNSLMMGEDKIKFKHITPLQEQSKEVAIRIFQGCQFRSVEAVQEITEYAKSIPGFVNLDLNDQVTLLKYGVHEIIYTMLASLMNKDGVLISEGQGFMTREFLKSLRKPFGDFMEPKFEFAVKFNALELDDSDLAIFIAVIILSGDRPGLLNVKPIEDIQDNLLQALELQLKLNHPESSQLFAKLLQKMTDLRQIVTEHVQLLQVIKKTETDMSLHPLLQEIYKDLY
# Peroxisome proliferator-activated receptor gamma/Nuclear receptor coactivator 3, sequence (Q9Y6Q9 whole entry, further chain): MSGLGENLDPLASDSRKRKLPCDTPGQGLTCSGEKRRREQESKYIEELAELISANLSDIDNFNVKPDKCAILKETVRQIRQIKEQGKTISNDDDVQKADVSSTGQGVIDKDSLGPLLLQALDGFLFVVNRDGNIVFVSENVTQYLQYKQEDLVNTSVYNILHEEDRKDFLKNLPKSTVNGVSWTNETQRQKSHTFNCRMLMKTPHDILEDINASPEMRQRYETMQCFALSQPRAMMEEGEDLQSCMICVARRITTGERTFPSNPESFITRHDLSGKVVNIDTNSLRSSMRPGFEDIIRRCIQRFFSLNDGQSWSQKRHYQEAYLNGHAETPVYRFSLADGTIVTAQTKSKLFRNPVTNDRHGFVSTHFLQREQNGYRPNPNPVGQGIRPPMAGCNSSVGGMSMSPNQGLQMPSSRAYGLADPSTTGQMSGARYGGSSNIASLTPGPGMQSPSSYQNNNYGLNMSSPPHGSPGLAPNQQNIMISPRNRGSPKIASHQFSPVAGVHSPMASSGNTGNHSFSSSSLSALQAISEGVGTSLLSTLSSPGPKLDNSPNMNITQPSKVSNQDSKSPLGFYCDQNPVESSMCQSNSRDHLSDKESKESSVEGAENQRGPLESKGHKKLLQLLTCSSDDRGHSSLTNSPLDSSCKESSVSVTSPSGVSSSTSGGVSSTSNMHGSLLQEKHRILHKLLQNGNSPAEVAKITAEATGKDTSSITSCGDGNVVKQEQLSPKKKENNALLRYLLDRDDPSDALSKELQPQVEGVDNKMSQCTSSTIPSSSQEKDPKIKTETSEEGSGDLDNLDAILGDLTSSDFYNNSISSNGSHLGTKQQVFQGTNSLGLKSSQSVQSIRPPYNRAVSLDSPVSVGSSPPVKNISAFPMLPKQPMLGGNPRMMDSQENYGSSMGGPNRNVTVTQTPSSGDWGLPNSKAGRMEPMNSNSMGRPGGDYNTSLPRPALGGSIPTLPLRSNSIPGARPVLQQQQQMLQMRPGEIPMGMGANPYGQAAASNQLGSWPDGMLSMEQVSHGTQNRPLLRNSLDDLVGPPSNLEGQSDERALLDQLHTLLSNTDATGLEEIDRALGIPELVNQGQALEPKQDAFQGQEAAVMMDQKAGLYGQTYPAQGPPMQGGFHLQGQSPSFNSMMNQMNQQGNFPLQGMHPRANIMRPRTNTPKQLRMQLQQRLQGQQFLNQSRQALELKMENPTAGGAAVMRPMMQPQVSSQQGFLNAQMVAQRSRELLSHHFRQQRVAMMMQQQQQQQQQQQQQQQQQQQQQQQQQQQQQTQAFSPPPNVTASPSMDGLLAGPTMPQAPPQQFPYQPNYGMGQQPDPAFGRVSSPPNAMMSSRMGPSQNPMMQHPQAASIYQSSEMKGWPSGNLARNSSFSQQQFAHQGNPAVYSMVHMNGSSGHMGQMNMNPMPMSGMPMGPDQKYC
# Peroxisome proliferator-activated receptor gamma/Nuclear receptor coactivator 2, sequence (P37231 whole entry): as the sequence (P37231 whole entry) above
# Peroxisome proliferator-activated receptor gamma/Nuclear receptor coactivator 2, sequence (Q15596 whole entry, further chain): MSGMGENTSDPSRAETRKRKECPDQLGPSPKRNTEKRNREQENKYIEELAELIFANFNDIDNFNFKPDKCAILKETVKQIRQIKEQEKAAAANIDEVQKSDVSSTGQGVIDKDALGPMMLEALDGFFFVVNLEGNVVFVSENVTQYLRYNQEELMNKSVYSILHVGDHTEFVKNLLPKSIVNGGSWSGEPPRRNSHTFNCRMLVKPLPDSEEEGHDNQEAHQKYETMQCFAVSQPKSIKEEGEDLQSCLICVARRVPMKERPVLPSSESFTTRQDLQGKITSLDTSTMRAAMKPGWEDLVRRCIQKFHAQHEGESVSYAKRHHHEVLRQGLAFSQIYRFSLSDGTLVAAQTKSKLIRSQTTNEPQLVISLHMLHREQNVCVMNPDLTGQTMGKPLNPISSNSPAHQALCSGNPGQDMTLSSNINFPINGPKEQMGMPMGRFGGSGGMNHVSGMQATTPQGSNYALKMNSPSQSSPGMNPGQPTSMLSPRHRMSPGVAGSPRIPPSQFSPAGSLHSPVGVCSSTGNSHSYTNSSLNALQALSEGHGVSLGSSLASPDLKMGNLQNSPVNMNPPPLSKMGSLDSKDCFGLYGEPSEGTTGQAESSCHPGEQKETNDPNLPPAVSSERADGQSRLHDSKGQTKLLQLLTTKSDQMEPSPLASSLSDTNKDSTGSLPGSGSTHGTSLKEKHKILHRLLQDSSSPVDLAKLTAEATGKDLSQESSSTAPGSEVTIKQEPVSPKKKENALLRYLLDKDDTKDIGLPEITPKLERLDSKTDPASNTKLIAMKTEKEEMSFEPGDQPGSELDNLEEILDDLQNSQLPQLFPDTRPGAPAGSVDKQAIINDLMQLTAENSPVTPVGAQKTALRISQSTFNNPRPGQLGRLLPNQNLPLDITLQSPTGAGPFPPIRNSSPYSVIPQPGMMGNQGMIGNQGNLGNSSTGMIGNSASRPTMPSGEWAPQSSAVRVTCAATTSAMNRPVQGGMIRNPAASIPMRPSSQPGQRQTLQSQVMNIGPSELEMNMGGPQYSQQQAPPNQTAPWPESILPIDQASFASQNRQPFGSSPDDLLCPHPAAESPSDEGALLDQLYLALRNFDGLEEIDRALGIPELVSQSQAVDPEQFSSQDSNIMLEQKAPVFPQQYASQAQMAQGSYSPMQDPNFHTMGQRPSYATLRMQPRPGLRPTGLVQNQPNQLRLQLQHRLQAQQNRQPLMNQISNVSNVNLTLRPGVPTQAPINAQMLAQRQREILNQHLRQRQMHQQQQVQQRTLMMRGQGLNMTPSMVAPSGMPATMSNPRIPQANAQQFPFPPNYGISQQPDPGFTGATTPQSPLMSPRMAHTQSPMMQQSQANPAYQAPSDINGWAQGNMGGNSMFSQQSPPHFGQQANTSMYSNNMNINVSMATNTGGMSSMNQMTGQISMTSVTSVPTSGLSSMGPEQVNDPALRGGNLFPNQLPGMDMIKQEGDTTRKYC
structure (smiles),measurement,setting,value
COC(=O)CNc1nnc(S)nc1O,EC50,[1],1.61 µM (active)
same,EC50,[2],53.6 µM (not active)
same,EC50,[3],2.15 µM (active)
CC(Sc1nnc(-c2ccccc2F)n1C1CC1)C(=O)NCc1ccco1 (stereo not given),AC50,Escherichia coli,24.4 µM (active)
CC1=C(C(=O)OCc2ccc3c(c2)OCO3)C(c2ccccc2)NC(=O)N1 (stereo not given),AC50,[4],0.695 µM (active)
same,AC50,HEK293 [5],6.3 µM (active)
COc1cccc(C(=O)Nc2cc([N+](=O)[O-])ccc2N2CCN(C)CC2)c1,AC50,Escherichia coli,25.5 µM (active)
Cc1ccc2nc(NC(=O)c3ccc(Cl)s3)sc2c1,IC50,[6],> 67.5 µM (inactive)
same,IC50,HEK293 [7],> 67.5 µM (inactive)
Oc1ccc(N=Nc2ccc3c(c2)OCCO3)c2ncccc12,EC50,[8],0.91 µM (active)
same,EC50,Streptococcus,2.27 µM (active)
same,IC50,[9],4.93 µM (active)
same,EC50,[10],4.43 µM (active)
same,EC50,[11],> 150 µM (inconclusive)
same,EC50,[12],0.872 µM (active)
same,EC50,[13],0.682 µM (active)
same,EC50,[14],> 180 µM (inactive)
same,IC50,[15],> 32 µM
same,EC50,[16],11.7 µM (active)
same,AC50,INS1,2.32 µM (active)
same,EC50,Beta-galactosidase,25.3 µM (active)
same,IC50,Exodeoxyribonuclease V,> 119 µM (inactive)
same,IC50,[17],> 119 µM (inactive)
O=C(CCC1CCCC1)Nc1ccc(C(=O)NCc2cccnc2)cc1,IC50,[18],> 16 µM (inactive)
same,AC50,[19],0.882 µM (active)
same,EC50,BJ [20],0.672 µM (inconclusive)
same,IC50,[21],0.331 µM (active)
same,EC50,BJ [22],1.53 µM (inconclusive)
same,EC50,[23],> 150 µM (not active)
same,EC50,BJ [24],> 150 µM (not active)
